Converted amounts (≈) assume the structure as drawn. The source made the active and inactive calls. The rule behind the calls is not given here.
Columns and labels:
[1] = Inhibition of Staphylococcus aureus topoisomerase 4 subunit ParC/ParE relaxation expressed in Escherichia coli BL21 (DE3) using supercoiled pBR322 DNA as substrate after 1 hr by agarose gel electrophoresis
Staphylococcus aureus [2] = assay: Antibacterial activity against Staphylococcus aureus ATCC 29213 by broth microdilution method; assay type: functional
hERG (KCNH2) = hERG (KCNH2) (Homo sapiens, UniProt Q12809); assay: Inhibition of human ERG expressed in CHO cells at 10 uM after 3 mins at -80 mV holding potential by Qpatch assay; assay type: cell-based; conditions: CHO cells expressing human ERG
[3] = Octanol-phosphate buffer partition coefficient, logD of compound at pH 7.4 by LC/UV analysis; assay type: physicochemical
[4] = Dissociation constant, pKa of the compound by pH metric assay; assay type: physicochemical
DNA gyrase = DNA gyrase (Staphylococcus aureus, UniProt P0A0K8+P20831)
Description: Inhibition of Staphylococcus aureus N-terminal His6-tagged DNA gyrase subunit GyrA/GyrB supercoiling activity expressed in Escherichia coli BL21 (DE3) using relaxed pBR322 DNA as substrate after 1 hr by agarose gel electrophoresis

Escherichia coli [5] = assay: Inhibition of Escherichia coli N-terminal His6-tagged DNA gyrase subunit GyrA/GyrB ATPase activity at 100 to 500 uM after 40 mins by spectrophotometric analysis
[6] = Inhibition of Escherichia coli N-terminal His6-tagged DNA gyrase subunit GyrA/GyrB ATPase activity expressed in Escherichia coli BL21 (DE3) after 40 mins by spectrophotometric analysis
[7] = Inhibition of Escherichia coli N-terminal His6-tagged DNA gyrase subunit GyrA/GyrB supercoiling activity expressed in Escherichia coli BL21 (DE3) using relaxed pBR322 DNA as substrate after 1 hr by agarose gel electrophoresis
[8] = Inhibition of Escherichia coli DNA topoisomerase 4 subunit ParC/ParE relaxation expressed in Escherichia coli BL21 (DE3) using supercoiled pBR322 DNA as substrate after 1 hr by agarose gel electrophoresis
Escherichia coli [9] = assay: Antibacterial activity against TolC deficient Escherichia coli by broth microdilution method; assay type: functional
Staphylococcus aureus [10] = assay: Antibacterial activity against methicillin-sensitive Staphylococcus aureus A-1178 infected in neutropenic mouse assessed as change in bacterial burden in thighs at 30 mg/kg, po administered every 2.75 hrs for 2 times measured 6.5 hrs post infection; assay type: functional

Sequence of hERG (KCNH2) (Q12809 whole entry): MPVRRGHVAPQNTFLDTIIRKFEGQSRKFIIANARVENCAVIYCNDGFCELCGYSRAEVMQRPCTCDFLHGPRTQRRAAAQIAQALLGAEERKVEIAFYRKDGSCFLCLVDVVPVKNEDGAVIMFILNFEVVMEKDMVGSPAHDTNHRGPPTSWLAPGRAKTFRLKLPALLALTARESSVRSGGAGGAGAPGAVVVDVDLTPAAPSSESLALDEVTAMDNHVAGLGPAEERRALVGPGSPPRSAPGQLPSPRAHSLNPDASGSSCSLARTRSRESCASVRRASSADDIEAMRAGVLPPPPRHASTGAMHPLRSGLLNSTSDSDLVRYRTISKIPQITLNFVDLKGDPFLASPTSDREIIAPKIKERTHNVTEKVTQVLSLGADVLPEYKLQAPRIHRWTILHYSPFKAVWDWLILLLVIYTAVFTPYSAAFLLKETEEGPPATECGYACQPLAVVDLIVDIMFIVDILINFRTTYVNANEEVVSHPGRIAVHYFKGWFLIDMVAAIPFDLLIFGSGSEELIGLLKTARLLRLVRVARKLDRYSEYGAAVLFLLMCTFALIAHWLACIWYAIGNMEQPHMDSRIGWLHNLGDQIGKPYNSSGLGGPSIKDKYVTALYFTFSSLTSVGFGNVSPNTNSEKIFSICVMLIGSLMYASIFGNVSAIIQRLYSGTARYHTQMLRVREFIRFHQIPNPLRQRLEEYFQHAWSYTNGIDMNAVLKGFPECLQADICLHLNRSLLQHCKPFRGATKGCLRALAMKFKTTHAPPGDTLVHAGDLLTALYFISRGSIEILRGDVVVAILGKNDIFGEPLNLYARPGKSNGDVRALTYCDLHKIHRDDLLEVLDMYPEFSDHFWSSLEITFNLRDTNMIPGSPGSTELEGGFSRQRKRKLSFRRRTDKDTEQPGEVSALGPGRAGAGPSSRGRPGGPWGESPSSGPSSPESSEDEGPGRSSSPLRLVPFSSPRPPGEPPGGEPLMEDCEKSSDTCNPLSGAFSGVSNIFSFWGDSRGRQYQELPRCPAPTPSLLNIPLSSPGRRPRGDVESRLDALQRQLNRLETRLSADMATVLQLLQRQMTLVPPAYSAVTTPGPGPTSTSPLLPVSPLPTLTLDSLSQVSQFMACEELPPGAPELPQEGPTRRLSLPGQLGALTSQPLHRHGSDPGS
Sequence of DNA gyrase (P0A0K8 whole entry): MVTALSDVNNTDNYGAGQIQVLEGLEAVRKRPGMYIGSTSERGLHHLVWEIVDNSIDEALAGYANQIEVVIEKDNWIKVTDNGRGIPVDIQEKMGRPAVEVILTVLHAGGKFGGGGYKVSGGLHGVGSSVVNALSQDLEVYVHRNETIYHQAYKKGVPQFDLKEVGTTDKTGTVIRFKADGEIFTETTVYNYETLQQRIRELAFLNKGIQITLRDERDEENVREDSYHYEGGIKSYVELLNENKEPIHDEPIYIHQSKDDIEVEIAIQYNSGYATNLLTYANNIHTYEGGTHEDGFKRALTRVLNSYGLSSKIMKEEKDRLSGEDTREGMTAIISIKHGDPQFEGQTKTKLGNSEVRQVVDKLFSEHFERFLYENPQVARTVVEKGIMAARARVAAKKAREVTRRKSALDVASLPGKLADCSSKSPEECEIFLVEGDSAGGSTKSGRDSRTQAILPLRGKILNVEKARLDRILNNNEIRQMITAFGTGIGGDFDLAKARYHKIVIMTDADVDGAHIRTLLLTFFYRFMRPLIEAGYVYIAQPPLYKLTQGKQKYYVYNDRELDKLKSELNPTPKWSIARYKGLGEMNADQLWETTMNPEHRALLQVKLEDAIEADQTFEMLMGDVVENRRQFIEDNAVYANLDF
Sequence of DNA gyrase (P20831 whole entry): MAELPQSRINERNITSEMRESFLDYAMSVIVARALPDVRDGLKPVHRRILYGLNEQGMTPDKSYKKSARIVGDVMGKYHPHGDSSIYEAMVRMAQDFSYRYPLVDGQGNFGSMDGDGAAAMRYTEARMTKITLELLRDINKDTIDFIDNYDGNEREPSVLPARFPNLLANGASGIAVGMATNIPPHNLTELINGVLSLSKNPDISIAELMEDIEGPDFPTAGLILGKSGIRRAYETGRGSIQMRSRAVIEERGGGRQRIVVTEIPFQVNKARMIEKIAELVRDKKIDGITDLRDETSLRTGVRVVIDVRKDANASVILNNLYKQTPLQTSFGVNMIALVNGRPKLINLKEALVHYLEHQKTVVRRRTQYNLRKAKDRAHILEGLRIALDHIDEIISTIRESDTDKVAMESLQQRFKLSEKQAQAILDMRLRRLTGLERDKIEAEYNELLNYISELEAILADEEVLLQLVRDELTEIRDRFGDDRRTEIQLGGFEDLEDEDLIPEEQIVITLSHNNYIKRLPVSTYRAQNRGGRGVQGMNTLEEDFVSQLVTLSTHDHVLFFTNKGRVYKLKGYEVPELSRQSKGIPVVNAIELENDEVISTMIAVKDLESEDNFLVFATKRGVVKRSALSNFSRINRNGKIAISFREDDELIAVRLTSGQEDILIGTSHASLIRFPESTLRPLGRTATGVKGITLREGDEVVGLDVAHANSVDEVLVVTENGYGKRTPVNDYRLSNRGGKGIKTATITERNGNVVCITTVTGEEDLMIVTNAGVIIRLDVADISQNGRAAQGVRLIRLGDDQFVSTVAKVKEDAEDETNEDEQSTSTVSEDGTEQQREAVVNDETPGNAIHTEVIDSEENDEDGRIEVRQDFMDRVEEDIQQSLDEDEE

Row | Compound | IC50 [1] [nM] | MIC (Staphylococcus aureus [2]) [µg/mL] | inhibition at 0.05 h, 10 µM (hERG (KCNH2)) [%] | logD [3] | pKa [4] | IC50 (DNA gyrase) [nM] | inhibition (Escherichia coli [5]) | IC50 [6] [nM] | IC50 [7] [nM] | IC50 [8] [nM] | MIC (Escherichia coli [9]) [µg/mL] | Activity (Staphylococcus aureus [10]) [deltalog10CFU]
1 | CCNC(=O)Nc1cc2c(-c3ccnc(C)c3)ccc(COC(=O)N3CCNCC3)c2cn1 | 500 | 2 (≈ 4.46 µM) | 0 | 1.9 | 8.1 | 8 | – | – | – | – | – | –
2 | CCNC(=O)Nc1ncc2ccccc2n1 | – | – | – | – | – | – | Active | > 200000 | – | – | – | –
3 | CCNC(=O)Nc1cc2c(-c3ccncc3)ccc(-c3cccnc3)c2cn1 | > 256000 | > 16 | – | – | – | 125 | – | – | 2000 | > 256000 | – | –
4 | CCNC(=O)Nc1cc2c(-c3cccnc3)cccc2cn1 | > 256000 | > 32 | – | – | – | 8000 | – | 1000 | 32000 | 128000 | > 32 | –
5 | CCNC(=O)Nc1cc2c(-c3ccnc(C)c3)ccc(CNC(=O)CCOC)c2cn1 | 2000 | 0.5 (≈ 1.19 µM) | 0 | 2.6 | – | 8 | – | – | – | – | – | –
6 | CCNC(=O)Nc1cc2c(-c3ccnc(C)c3)ccc(Cn3ccnn3)c2cn1 | 2000 | 0.25 (≈ 0.645 µM) | – | – | – | 8 | – | – | 30 | 8000 | – | -0.6
7 | CCNC(=O)Nc1nc2c(s1)CCCC2 | – | – | – | – | – | – | Active | 200000 | – | – | – | –
8 | CCNC(=O)Nc1nc2ccccc2s1 | – | – | – | – | – | – | Active | 20000 | – | – | – | –
9 | CCNC(=O)Nc1cc2c(-c3ccnc(C)c3)ccc(COC(=O)N3CCN(CC4CC4)CC3)c2cn1.Cl | 500 | 1 | 74 | 3.6 | 7.4 | 8 | – | – | – | – | – | –
10 | CCNC(=O)Nc1cc2cccc(C)c2cn1 | > 256000 | 32 (≈ 140 µM) | – | – | – | 8000 | – | 1000 | 32000 | 128000 | > 32 | –
11 | CCNC(=O)Nc1ccccn1 | – | – | – | – | – | – | Active | > 200000 | – | – | – | –
12 | CCNC(=O)Nc1cc2c(-c3cnn(C)c3)ccc(C)c2cn1.Cl | > 256000 | 4 | – | – | – | 125 | – | < 200 | 8000 | 32000 | 16 | –
13 | CCNC(=O)Nc1nc2ccncc2s1 | – | – | – | – | – | – | Active | 20000 | – | – | – | –
14 | CCNC(=O)Nc1cc2c(-c3ccncc3)ccc(Nc3cccnc3)c2cn1 | 125 | 0.06 (≈ 0.156 µM) | – | – | – | 8 | – | – | 30 | 500 | – | –
15 | CCNC(=O)Nc1cc2c(-c3ccncc3)ccc(CNC(=O)OCCO)c2cn1 | 500 | 2 (≈ 4.88 µM) | 0 | 2 | – | < 4 | – | – | – | – | – | –
16 | CCNC(=O)Nc1cc2c(-c3ccnc(C)c3)ccc(COC(=O)N[C@@H]3CCNC[C@H]3F)c2cn1 (relative stereo) | 125 | 2 (≈ 4.16 µM) | 9 | 2.2 | 7.7 | 8 | – | – | – | – | – | –
17 | CCNC(=O)Nc1cc2c(-c3ccncc3)ccc(CNC(=O)OC(C)C)c2cn1 | 500 | 0.25 (≈ 0.614 µM) | 63 | 3.7 | – | < 4 | – | – | – | – | – | –
18 | CCNC(=O)Nc1cc2c(-c3ccnc(C)c3)ccc(CNC(=O)OCCO)c2cn1 | 8000 | 1 (≈ 2.36 µM) | 19 | 2.5 | – | 30 | – | – | – | – | – | –
19 | CCNC(=O)Nc1cc2c(-c3ccncc3)ccc(CNC(=O)OCCN3CCOCC3)c2cn1.Cl | 500 | 4 | 0 | 2.3 | 6.3 | < 4 | – | – | – | – | – | –
20 | CCNC(=O)Nc1cc2c(-c3ccnc(C)c3)ccc(COC(=O)N[C@@H]3CCNC[C@@H]3F)c2cn1 (relative stereo) | 125 | 4 (≈ 8.32 µM) | 8 | 1.5 | 8.1 | 8 | – | – | – | – | – | –
21 | CCNC(=O)Nc1cc2c(-c3ccnc(C)c3)ccc(Cc3cccc(C(=O)O)c3)c2cn1 | 128000 | 0.5 (≈ 1.14 µM) | – | – | – | 8 | – | – | 30 | > 256000 | – | -0.3

Row | Compound | IC50 [1] [nM] | MIC (Staphylococcus aureus [2]) [µg/mL] | inhibition at 0.05 h, 10 µM (hERG (KCNH2)) [%] | logD [3] | pKa [4] | IC50 (DNA gyrase) [nM] | inhibition (Escherichia coli [5]) | IC50 [6] [nM] | IC50 [7] [nM] | IC50 [8] [nM] | MIC (Escherichia coli [9]) [µg/mL] | Activity (Staphylococcus aureus [10]) [deltalog10CFU]
22 | CCNC(=O)Nc1nccs1 | – | – | – | – | – | – | Active | > 200000 | – | – | – | –
23 | CCNC(=O)Nc1cc2c(-c3ccncn3)ccc(C)c2cn1 | 32000 | 4 (≈ 13 µM) | – | – | – | 500 | – | < 200 | – | 32000 | 4 (≈ 13 µM) | –
24 | CCNC(=O)Nc1nc2c(s1)CNCC2 | – | – | – | – | – | – | Active | 200000 | – | – | – | –
25 | CCNC(=O)Nc1cc2c(-c3ccnc(C)c3)ccc(COC(=O)NC3CCNCC3)c2cn1 | 500 | 16 (≈ 34.6 µM) | 2 | 0.8 | 9.8 | 8 | – | – | – | – | – | –
26 | CCNC(=O)Nc1cc2c(-c3ccnc(C)c3)ccc(Nc3cccc(C(=O)O)c3)c2cn1 | 125 | 0.5 (≈ 1.13 µM) | – | – | – | 8 | – | – | – | 500 | – | –
27 | CCNC(=O)Nc1cc2c(-c3ccncc3)ccc(Oc3cccnc3)c2cn1 | 2000 | 0.25 (≈ 0.649 µM) | – | – | – | 30 | – | – | 125 | 8000 | – | –
28 | CCNC(=O)Nc1ccc2ccccc2n1 | – | – | – | – | – | – | Active | 70000 | – | – | – | –
29 | CCNC(=O)Nc1cc2c(-c3ccncc3)ccc(CNC(=O)OC)c2cn1 | 500 | 0.125 (≈ 0.329 µM) | 41 | 2.7 | – | < 4 | – | – | – | – | – | –
30 | CCNC(=O)Nc1cc2c(-c3ccnc(C)c3)ccc(CNC(=O)OC3CCNCC3(F)F)c2cn1 (centres undefined) | 2000 | 0.5 (≈ 1 µM) | 8 | 3.1 | 6.5 | 8 | – | – | – | – | – | –
31 | CCNC(=O)Nc1cc2c(-c3ccncc3)ccc(CNC(=O)OCCNCC(C)(C)C)c2cn1 | 8000 | 4 (≈ 8.36 µM) | 25 | 2.6 | 8.7 | 8 | – | – | – | – | – | –
32 | CCNC(=O)Nc1cc2c(-c3ccnc(C)c3)ccc(C)c2cn1 | 8000 | 0.5 (≈ 1.56 µM) | – | – | – | 30 | – | < 200 | 125 | 8000 | 4 (≈ 12.5 µM) | –
33 | CCNC(=O)Nc1cc2c(-c3ccncc3)ccc(CNC(=O)OCCNC)c2cn1 | 2000 | > 32 | 3 | 0.2 | 9 | 30 | – | – | – | – | – | –
34 | CCNC(=O)Nc1cc2ccccc2cn1 | > 256000 | > 32 | – | – | – | 128000 | Active | 20000 | – | > 256000 | > 32 | –
35 | CCNC(=O)Nc1nccc2ccccc12 | – | – | – | – | – | – | Active | > 200000 | – | – | – | –
36 | CCNC(=O)Nc1nc2c(s1)NC(=O)CC2 | – | – | – | – | – | – | Active | 20000 | – | – | – | –
37 | CCNC(=O)Nc1cc2c(-c3ccnc(C)c3)ccc(CNC(=O)C3CC3)c2cn1 | 2000 | 0.06 (≈ 0.149 µM) | 75 | 3.4 | – | < 4 | – | – | – | – | – | –
38 | CCNC(=O)Nc1cnc2ccccc2n1 | – | – | – | – | – | – | Active | 20000 | – | – | – | –
39 | CCNC(=O)Nc1cc2c(-c3ccc(C#N)cc3)ccc(C)c2cn1 | > 256000 | > 32 | – | – | – | 30 | – | < 200 | 125 | > 256000 | > 32 | –
40 | CCNC(=O)Nc1cc2c(-c3ccnc(C)c3)ccc(Cc3cccnc3)c2cn1.Cl | 2000 | 0.5 | – | – | – | 30 | – | – | 125 | 8000 | – | –
41 | CCNC(=O)Nc1cc2c(-c3cccnc3)ccc(C)c2cn1 | > 256000 | 2 (≈ 6.53 µM) | – | – | – | 125 | – | < 200 | 2000 | > 256000 | > 32 | –
42 | CCNC(=O)Nc1cc2c(-c3cncnc3)ccc(C)c2cn1 | > 256000 | > 32 | – | – | – | 500 | – | < 200 | 2000 | > 256000 | > 32 | –
